Consider 17 molecules from ChEMBL document CHEMBL3880395, “Novel compounds and methods of use thereof” (2003).

Data set [1] is filed under the species Rattus norvegicus. Briefly: Antiangiogenic activity in Sprague-Dawley rat thoracic aortic rings assessed as inhibition of capillary like tube formation at 0.3 ug/ml for 5 days by MTT/MTS assay. Conditions: Thoracic aorta. The class given is functional.
The nature of data set [2]: Toxicity in DBA/2J mouse implanted with mouse P388 cells assessed as body weight loss at 5 to 400 mg/kg, po administered daily for 4 days measured twice daily during compound dosing. Type of data set: organism-based. The note with it: in vivo, 96 h.
Data set [3] is described as follows: Cytotoxicity against human HONE1 cells assessed as reduction in cell growth after 72 hrs by MTS assay. The class given is functional, cell-based. Conditions: HONE1, 72 h.
A short description of data set [4]: Anticancer activity against mouse P388 cells implanted in DBA/2J mouse assessed as increase in life span at 200 mg/kg, po administered daily for 4 days measured twice daily during compound dosing. Type of data set: functional. The note with it: 96 h.
A short description of data set [5]: Toxicity in athymic nude mouse xenografted in human SW480 cells xenografted assessed as body weight loss at 200 mg/kg, administered via oral gavage daily for 6 weeks measured twice per every week for 70 days. Type of data set: organism-based. The note with it: in vivo, 1680 h.
In another data set the test system is P388. Briefly: Anticancer activity against mouse P388 cells implanted in po dosed DBA/2J mouse assessed as increase in life span administered daily for 4 days measured twice daily during compound dosing. Type of data set: functional, organism-based.
Data set [6] is described as follows: Toxicity in DBA/2J mouse implanted with mouse P388 cells assessed as body weight loss at 25 to 400 mg/kg, po administered daily for 4 days measured twice daily during compound dosing. Type of data set: organism-based. The note with it: in vivo, 96 h.
The species entered for data set [7] is Rattus norvegicus. In words: Antiangiogenic activity in Sprague-Dawley rat thoracic aortic rings assessed as inhibition of capillary like tube formation at 1 ug/ml for 5 days by MTT/MTS assay. Type of data set: functional. Conditions: Thoracic aorta.

Active and inactive are the calls of the source. The calls are words filed in the database; no cut-off is given here.

Regarding `Cc1cc(NC(=O)C(=O)c2cn(Cc3ccco3)c3ccccc23)sn1`, the inhibition entry in the data set listed under Rattus norvegicus [1] was “Active”.
With `N#Cc1ccc(Cn2cc(C(=O)C(=O)Nc3ccc(I)cc3)c3ccccc32)cc1`, the inhibition result in the data set listed under Rattus norvegicus [1] is “Active”.
With `Cc1cc(Cn2cc(C(=O)C(=O)Nc3ccc(Br)cc3)c3ccccc32)on1`, the inhibition entry in the data set listed under Rattus norvegicus [1] was “Active”.
Same read-out and setting: as for `O=C(Nc1ccc2ncccc2c1)C(=O)c1cn(Cc2ccco2)c2ccccc12`, the entry is “Active”.
Regarding `Cc1cc(Cn2cc(C(=O)C(=O)Nc3cc(C)ns3)c3ccccc32)on1`, the Activity result in data set [2] and in data set [5] was “Non-Toxic” in each case. In addition, in the data set filed under Rattus norvegicus [1], the inhibition entry was “Active”. Further, in data set [3], the IC50 lay within 3 to 4 nM. Moreover, in data set [4], the ILS at 200 mg/kg amounted to 100%. Besides, the ILS result in the data set with P388 is “Dose-dependent effect”.
In the case of `O=C(Nc1ccc2ncccc2c1)C(=O)c1cn(Cc2ccsc2)c2ccccc12`, the Activity result in data set [6] is “Non-Toxic”. Moreover, the ILS result with P388 was “Dose-dependent effect”.
As to `Cc1cc(NC(=O)C(=O)c2cn(Cc3ccsc3)c3ccccc23)sn1`, the inhibition result in the data set listed under Rattus norvegicus [1] was “Active”.
Same read-out and setting: as for `Cc1cc(Cn2cc(C(=O)C(=O)Nc3ccc4ncccc4c3)c3ccccc32)on1`, the entry is “Active”; as for `N#Cc1ccc(Cn2cc(C(=O)C(=O)Nc3ccc4ncccc4c3)c3ccccc32)cc1`, “Active”.
Turning to `Cc1cc(NC(=O)C(=O)c2cn(Cc3ccc(C#N)cc3)c3ccccc23)sn1`, in data set [6], the Activity entry is listed as “Non-Toxic”. Moreover, the inhibition result in the data set filed under Rattus norvegicus [1] is “Active”. The ILS result with P388 is “Dose-dependent effect”.
In the case of `CCc1cc(Cn2cc(C(=O)C(=O)Nc3cc(C)ns3)c3ccccc32)on1`, the inhibition entry in the data set filed under Rattus norvegicus [1] was “Active”.
Same read-out and setting: to `Cc1cc(NC(=O)C(=O)c2cn(Cc3cc(C(C)C)no3)c3ccccc23)sn1` belongs “Active”; to `O=C(Nc1ccc2ncccc2c1)C(=O)c1cn(Cc2cscn2)c2ccccc12`, “Active”.
Take `COc1ccc(NC(=O)C(=O)c2cn(Cc3ccccc3C#N)c3ccccc23)cc1`: in the data set filed under Rattus norvegicus [1], the inhibition result is “Active”.
In the case of `O=C(Nc1ccncc1)C(=O)c1cn(Cc2ccc(Cl)cc2)c2ccccc12`, in the data set filed under Rattus norvegicus [7], the inhibition entry was “Active”.
On the same count and under the same terms, as for `Cc1cc(NC(=O)C(=O)c2cn(Cc3cccs3)c3ccccc23)sn1`, the entry is “Active”.
On to `Cc1cc(NC(=O)C(=O)c2cn(Cc3ccno3)c3ccccc23)sn1`, for which the inhibition entry in the data set filed under Rattus norvegicus [1] was “Active”.
